Results: PubChem BioAssay AID274 (DTP/NCI, 2004)
Values joined by “and” are separate entries in the source; they are usually repeats but may differ in a detail not shown here. Identical values can stand only once. Toxic doses and inconclusive results are not listed.

Test system: BDF1 mice, Lewis lung carcinoma iv, survival T/C
Assay: NCI In Vivo Anticancer Drug Screen. Data for tumor model Lewis Lung Carcinoma (intravenous) in B6D2F1 (BDF1) mice
Conditions: endpoint: median survival time, schedule: Q01DX009 (ip), higher = longer survival
Method: The antitumor activity of compounds was measured in mice bearing transplantable tumors. Survival or tumor size were measured and the results are expressed as the measurement made in the treated group (T) divided by the measurement made in the vehicle treated control group (C). The tumor model used in this assay is Lewis Lung Carcinoma (intravenous) in B6D2F1 (BDF1) mice

[1] = dose: 25.0 mg/kg/injection, vehicle: Klucel (hydroxypropylcellulose) (HPC)
[2] = dose: 50.0 mg/kg/injection, vehicle: Klucel (hydroxypropylcellulose) (HPC)
[3] = dose: 6.25 mg/kg/injection, vehicle: saline
[4] = dose: 12.5 mg/kg/injection, vehicle: saline
[5] = dose: 12.5 mg/kg/injection, vehicle: saline with Tween-80
[6] = dose: 25.0 mg/kg/injection, vehicle: saline with Tween-80
[7] = dose: 50.0 mg/kg/injection, vehicle: saline with Tween-80
[8] = dose: 100.0 mg/kg/injection, vehicle: saline with Tween-80
[9] = dose: 200.0 mg/kg/injection, vehicle: saline with Tween-80

In the case of `COC1=C(NC(C)=O)C(=O)c2nc(-c3nc(C(=O)O)c(C)c(-c4ccc(OC)c(OC)c4O)c3N)ccc2C1=O`, the T/C (dose: 6.0 mg/kg/injection, vehicle: Klucel (hydroxypropylcellulose) (HPC)) is reported as 101 % of control, the T/C (dose: 12.0 mg/kg/injection, vehicle: Klucel (hydroxypropylcellulose) (HPC)) is reported as 96 % of control and the T/C [1] is reported as 98 % of control. For the same compound, the T/C [2] was 97 % of control.

With `COc1cc2c[n+](C)c3c4cc5c(cc4ccc3c2cc1OC)OCO5` (tested in a mixture with another compound) the T/C (dose: 3.13 mg/kg/injection, vehicle: Klucel (hydroxypropylcellulose) (HPC)) was 103 % of control, the T/C (dose: 6.25 mg/kg/injection, vehicle: Klucel (hydroxypropylcellulose) (HPC)) was 184 % of control and the T/C (dose: 12.5 mg/kg/injection, vehicle: Klucel (hydroxypropylcellulose) (HPC)) was 120 % of control. For the same compound, the T/C [1] was 120 % of control.

`CCOC(=O)C(N)C[S][Sn]([CH3])([CH3])[Cl]` (stereo not drawn) was tested, and the T/C [3] was 100 % of control, the T/C [4] was 102 % of control and the T/C (dose: 25.0 mg/kg/injection, vehicle: saline) was 95 % of control.

In the case of `N#CC(=C1SCS1)[N+](=O)[O-]`, the T/C (dose: 0.75 mg/kg/injection, vehicle: saline with Tween-80) is reported as 94 % of control, the T/C (dose: 1.5 mg/kg/injection, vehicle: saline with Tween-80) is reported as 102 % of control and the T/C (dose: 3.0 mg/kg/injection, vehicle: saline with Tween-80) is reported as 102 % of control. For the same compound, the T/C (dose: 6.0 mg/kg/injection, vehicle: saline with Tween-80) was 92 % of control.

`C[Si](C)(C)O/C=C1\CCCCC1=O` was tested, and the T/C (dose: 6.25 mg/kg/injection, vehicle: saline with Tween-80) was 96 % of control and 98 % of control, the T/C [5] was 96 % of control and 98 % of control and the T/C [6] was 93 % of control and 102 % of control. For the same compound, the T/C [7] was 102 % of control and 107 % of control, the T/C [8] was 104 % of control and 116 % of control and the T/C [9] was 104 % of control and 113 % of control.

In the case of `C[CH2][Sn]([CH2]C)([O]S(C)(=O)=O)[O]S(C)(=O)=O`, the T/C (dose: 0.78 mg/kg/injection, vehicle: saline) is reported as 98 % of control, the T/C (dose: 1.56 mg/kg/injection, vehicle: saline) is reported as 105 % of control and the T/C (dose: 3.12 mg/kg/injection, vehicle: saline) is reported as 93 % of control. The T/C [3] was 92 % of control and the T/C [4] was 93 % of control.

`Cc1cc2nc(Cc3nc4cc(C)c(C)cc4[nH]3)[nH]c2cc1C` was tested, and the T/C [5] was 95 % of control, the T/C [6] was 109 % of control and the T/C [7] was 97 % of control and 104 % of control. The T/C [8] was 100 % of control.

`Nc1nc(SCc2ccccc2)c2ncn(C3OC(CO)CC3O)c2n1` (stereo not drawn) was tested, and the T/C [2] was 109 % of control.

`COc1ccc(C(=O)c2no[n+]([O-])c2C(=O)c2ccc(OC)cc2)cc1` was tested, and the T/C [5] was 104 % of control, the T/C [6] was 102 % of control and the T/C [7] was 95 % of control. For the same compound, the T/C [8] was 98 % of control, the T/C [9] was 100 % of control and the T/C (dose: 400.0 mg/kg/injection, vehicle: saline with Tween-80) was 111 % of control.

For `CN(N=O)C(=O)N[C@@H](C=O)[C@@H](O)[C@H](O)[C@H](O)CO`, the T/C (dose: 16.0 mg/kg/injection, vehicle: other) was 109 % of control, the T/C (dose: 25.0 mg/kg/injection, vehicle: citric acid) was 110 % of control and the T/C (dose: 32.0 mg/kg/injection, vehicle: other) was 98 % of control. The T/C (dose: 64.0 mg/kg/injection, vehicle: other) was 112 % of control, the T/C (dose: 100.0 mg/kg/injection, vehicle: citric acid) was 124 % of control and the T/C (dose: 128.0 mg/kg/injection, vehicle: other) was 109 % of control.
